A short description of data set [1]: Stability assay in liver microsome in vitro. It is filed as in vitro ADME, Mouse. On the procedure: IV. Stability Assay in Liver Microsome In Vitro
To evaluate the metabolic stability of the compounds of the present invention in liver microsome in vitro.
Formulation of the working solution of the compound: 2 μL of the stock solution of the compound was added to 998 μL of phosphate buffer, and the final concentration was 20 μM.
Formulation of the working solution of the control compound (7-hydroxycoumarin): The formulation was consistent with that of the compound. • 3.2. Formulation of the working solution of liver microsome
78.1 μL of 20 mg/mL microsome was diluted to 2.5 mL with 100 mM phosphate buffer and mixed well, and the final concentration was 0.625 mg/mL. • 3.3. Formulation of NADPH and UDPGA
33.3 mg of NADPH and 25.8 mg of UDPGA were weighed respectively, followed by the addition of 2 mL of 100 mM phosphate buffer. The final concentrations were 20 mM. • 3.4. Formulation of the channel-forming reagent (Alamethicin)
1 mg of Alamethicin was weighed, to which 200 μL of DMSO was added to obtain a 5 mg/mL solution. 10 μL of this solution was added to 990 μL of phosphate buffer (pH 7.4), and the final concentration was 50 μg/mL. • 3.5. Formulation of the reaction stop solution
Stop solution: Cold acetonitrile containing 100 ng/mL labetalol hydrochloride and 400 ng/mL tolbutamide was used as internal standards, and stored in a refrigerator at 2 to 8° C. • 3.6. Incubation procedure
400 μL of the formulated liver microsome, 25 μL of the working solution of the compound […] and 25 μL of Alamethicin (50 μg/mL) were added to a 96-well plate successively, which was then pre-incubated at 37° C. for 10 min. 50 μL of the formulated NADPH/UDPGA was added to initiate the reaction, and the plate was incubated at 37° C. The total volume of the reaction system was 500 μL. The final contents of the components were as follows:
[…] The resulting sample was centrifuged at 4000 g for 10 min, and the supernatant was collected for LC-MS/MS analysis.

The test system of data set [2] is Rats F344. In words: Pharmacodynamic model of active escape experiment in rats. Format: in vivo. The note with it: oral, dose 1 mg/kg, one hour before the test. On the procedure: V. Pharmacodynamic Model of Active Escape Experiment in Rats
To evaluate the anti-schizophrenic effect of the compounds using the pharmacodynamic model of the active escape experiment in rats.
4. Formulation of the Vehicle and Compounds: • 4.1 Vehicle (0.5% CMC-Na+1% Tween80)
A certain mass (such as 1.0 g) of CMC-Na was weighed into a glass bottle, a certain volume (such as 200 mL) of purified water was added, and the resulting mixture was stirred to disperse evenly. 1% (v/v) Tween 80 was added according to the solution volume, and the resulting mixture was stirred overnight to obtain a homogeneous clear solution, which was stored at 2 to 8° C. for later use. • 4.2 Formulation of the compounds: […]
A formula amount of the compound was weighed, followed by the addition of a formula volume of 0.5% CMC-Na+1% Tween 80 solution. The compound solution was formulated before the administration, stored at 2 to 8° C., and used within 4 days.
The day before the compound screening test, a baseline test was performed. The test procedure was the same as 5.1.1 to 5.1.3, and the number of the baseline test was 20. The animals whose number of avoids reached 16 (80%) were grouped according to the number of avoids, 10 animals per group. The first group was administered with the vehicle orally, and the other groups were administered with the corresponding test compounds according to the experimental design. • 5.3 Compound screening test
The compound was administered orally (5 mL/kg) one hour before the test;
The test procedure was the same as 5.1.1 to 5.1.4, and the number of the test was 20.
The following data was collected by the software for data analysis: • Number of avoids of the animal; • Number of escape failures of the animal; • Escape latency of the animal;
All measurement data were expressed as mean±standard error (Mean±SEM), and analyzed by Graphpad 6 statistical software. The difference was considered to be significant when p<0.05.

Data set [3] addresses 5-HT2A receptor (Homo sapiens (Human), UniProt P28223). In words: Radioligand-receptor binding assay, 5-HT2A receptor ([3H]-Ketanserin). The note with it: [3H]-Ketanserin 2 nM, human 5-HT2A receptor membrane; read-out: 5HT-2A binding activity IC50. On the procedure: Determination of the Binding Ability of the Compounds of the Present Invention to 5-HT2A Receptor
The objective of this test example is to determine the affinity of the compounds for 5-HT2A receptor.
Assay buffer: 50 mM Tris-HCl pH 7.4, 4 mM CaCl2); wash solution: 50 mM Tris-HCl pH 7.4, stored at 4° C.; 0.5% PEI solution: 0.5 g PEI dissolve in 100 mL ddH2O, 4° C. storage of spare.
5 μL of the test compounds (0.005 nM to 100 nM, 10 concentrations in total) and 100 μL of buffer were added to a 96-well assay plate. 1.5 μL of cell membrane and 300 L of buffer were added to each well. The plate was shaken at 600 rpm for 5 min. A mixed solution of 100 μL of buffer and [^3H]-Ketanserin (the final concentration was 2 nM) was added to each well. The plate was shaken at 600 rpm for 5 min, and incubated at 27° C. for 30 min. The […]-96 GF/B filter plate pre-incubated with 0.5% PEI for 1 h was washed twice with the buffer (1 mL/well). The cell membrane suspension was added to the […]-96 GF/B filter plate, washed 4 times, and incubated at 55° C. for 10 min. 40 μL of ULTIMA GOLD was added to each well, and liquid scintillation counting was carried out.
(§1) The CPM (Counts per minute) values were determined by TopCount. […] The 10 concentrations of the compound were from 100 nM to 0.005 nM after 3-fold dilution of the reaction system. The percent inhibition rate and ten-point concentration data were fitted to the parametric nonlinear logistic equation by using GraphPad prism to calculate the IC50 values of the compound.

In data set [4] the target is Human Dopamine D3 Receptor (Homo sapiens (Human), UniProt P35462). In words: Radioligand-receptor binding assay, dopamine D3 receptor ([3H]-methylspiperone). Conditions: [3H]-methylspiperone 0.5 nM, human D3 receptor membrane. The procedure:
Determination of the Binding Ability of the Compounds of the Present Invention to Dopamine D3 Receptor
The objective of this test example is to determine the affinity of the compounds for dopamine D3 receptor.
Assay buffer: 50 mM Tris-HCl pH 7.4, 10 mM MgCl2; wash solution: 50 mM Tris-HCl pH 7.4, stored at 4° C.; 0.5% PEI solution: 0.5 g PEI dissolve in 100 mL ddH2O, 4° C. storage of spare.
5 μL of the test compounds (0.005 nM to 100 nM, 10 concentrations in total) and 100 μL of buffer were added to a 96-well assay plate. 1 μL of cell membrane and 300 μL of buffer were added to each well, and the plate was shaken at 600 rpm for 5 min. A mixed solution of 100 μL of buffer and [^3H]-methylspiperone (the final concentration was 0.5 nM) was added to each well. The plate was shaken at 600 rpm for 5 min, and incubated at 27° C. for 30 min. The […]-96 GF/B filter plate pre-incubated with 0.5% PEI for 1 h was washed twice with the buffer (1 mL/well). The cell membrane suspension was added to the […]-96 GF/B filter plate, washed 4 times, and incubated at 55° C. for 10 min. 40 μL of ULTIMA GOLD was added to each well, and liquid scintillation counting was carried out.
as §1

Chain of 5-HT2A receptor (P28223 whole entry): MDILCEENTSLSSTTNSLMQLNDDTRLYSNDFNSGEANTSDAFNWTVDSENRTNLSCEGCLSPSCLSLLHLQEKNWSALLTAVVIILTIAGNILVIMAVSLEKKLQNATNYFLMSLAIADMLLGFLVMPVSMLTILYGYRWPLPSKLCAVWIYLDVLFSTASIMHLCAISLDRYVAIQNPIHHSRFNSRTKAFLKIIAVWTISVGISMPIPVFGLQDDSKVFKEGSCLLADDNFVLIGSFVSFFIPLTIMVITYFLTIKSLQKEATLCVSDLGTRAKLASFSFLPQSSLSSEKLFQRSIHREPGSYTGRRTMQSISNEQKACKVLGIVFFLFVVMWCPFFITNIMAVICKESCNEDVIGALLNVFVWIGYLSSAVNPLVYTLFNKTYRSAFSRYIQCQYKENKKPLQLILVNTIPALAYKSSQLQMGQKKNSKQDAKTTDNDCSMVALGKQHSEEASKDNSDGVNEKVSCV
Chain of Human Dopamine D3 Receptor (P35462 whole entry): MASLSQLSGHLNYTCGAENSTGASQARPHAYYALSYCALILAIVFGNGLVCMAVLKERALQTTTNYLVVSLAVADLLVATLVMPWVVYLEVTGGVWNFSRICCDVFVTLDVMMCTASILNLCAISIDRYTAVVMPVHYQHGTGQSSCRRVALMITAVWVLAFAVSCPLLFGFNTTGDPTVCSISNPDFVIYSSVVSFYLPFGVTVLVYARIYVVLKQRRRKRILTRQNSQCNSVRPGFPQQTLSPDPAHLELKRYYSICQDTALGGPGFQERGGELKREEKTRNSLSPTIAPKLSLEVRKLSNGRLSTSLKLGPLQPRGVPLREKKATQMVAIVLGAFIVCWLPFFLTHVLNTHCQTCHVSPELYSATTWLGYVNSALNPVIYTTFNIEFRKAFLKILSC

Consider `CN(C)C(=O)N[C@H]1CC[C@H](CCN2CCN(c3cccc(Cl)c3Cl)CC2)CC1` [Cariprazine, reference compound], for which the half-life at 1 μM in data set [1] (CD-1, liver microsomes, pH 7.4, Mouse liver microsome 0.5 mg/mL, compound 1 μM, NADPH/UDPGA, read-out: Half life (t1/2)) turned out to be 1.1 h. Besides, in data set [1] (CD-1, liver microsomes, pH 7.4, Mouse liver microsome, note: Slow <8.8, Rapid >48.0, read-out: Intrinsic clearance rate (CLint)), the microsomal CLint at 1 μM was determined as 21.1 µL/min/mg. In addition, the “Remaining (%, 120 min)” value in data set [1] (Mouse liver microsome, 120 min) amounted to 30.5%. In data set [2], this molecule had a CAR value of 45.5% and an EF of 5.5%.

`O=C(N[C@H]1CC[C@H](CCN2CCN(c3cccc4sccc34)CC2)CC1)N1CC(F)(F)C1` [Example 2, N-(Trans-4-(2-(4-(benzo[b]thiophen-4-yl)piperazin-1-yl)ethyl)cyclohexyl)-3,3-difluoro azetidine-1-carboxamide]: the figures for the IC50 in data set [3] and in data set [4] were 3.4 nM and 0.76 nM, respectively.

On to `CC1(O)CN(C(=O)N[C@H]2CC[C@H](CCN3CCN(c4cccc5sccc45)CC3)CC2)C1` [Example 3, N-(Trans-4-(2-(4-(benzo[b]thiophen-4-yl)piperazin-1-yl)ethyl)cyclohexyl)-3-hydroxy-3-methylazetidine-1-carboxamide], for which the IC50 in data set [4] was 1.59 nM.

As to `COC1(C)CN(C(=O)N[C@H]2CC[C@H](CCN3CCN(c4cccc5sccc45)CC3)CC2)C1` [Example 4, N-(Trans-4-(2-(4-(benzo[b]thiophen-4-yl)piperazin-1-yl)ethyl)cyclohexyl)-3-methoxy-3-methylazetidine-1-carboxamide], the results for the IC50 in data set [3] and in data set [4] were 0.26 nM and 1.52 nM, respectively.

Consider `CN(C)C(=O)N[C@H]1CC[C@](F)(CCN2CCN(c3cccc4sccc34)CC2)CC1` [Example 15, 3-(Cis-4-(2-(4-(benzo[b]thiophen-4-yl)piperazin-1-yl)ethyl)-4-fluorocyclohexyl)-1,1-dimethylurea], for which the IC50 in data set [4] was determined as 4.25 nM.

As for `CCNC(=O)N[C@H]1CC[C@](F)(CCN2CCN(c3cccc4sccc34)CC2)CC1` [Example 16, 1-(Cis-4-(2-(4-(benzo[b]thiophen-4-yl)piperazin-1-yl)ethyl)-4-fluorocyclohexyl)-3-ethylurea], the IC50 in data set [3] stood at 2.07 nM; in data set [4], 0.57 nM.

With `CN(C)C(=O)NC1CCC(CCN2CCN(c3cccc4sccc34)CC2)CC1F` (stereo not shown) [Example 23, 3-(4-(2-(4-(Benzo[b]thiophen-4-yl)piperazin-1-yl)ethyl)-2-fluorocyclohexyl)-1,1-dimethylurea], the values for the IC50 in data set [3] and in data set [4] were 6.45 nM and 2.69 nM, respectively.

For `C[C@@H]1CN(c2cccc3sccc23)CCN1CC[C@H]1CC[C@H](Nc2ncc(C#N)cn2)CC1` [Example 44, 2-((Trans-4-(2-((R)-4-(benzo[b]thiophen-4-yl)-2-methylpiperazin-1-yl)ethyl)cyclohexyl)amino)pyrimidine-5-carbonitrile], the IC50 stood at 2.59 nM in data set [3] and 1.58 nM in data set [4].

As to `O=C(N[C@H]1CC[C@H](CCN2CCN(c3cccc4sccc34)CC2)CC1)c1ccco1` [Example 45, N-(Trans-4-(2-(4-(benzo[b]thiophen-4-yl)piperazin-1-yl)ethyl)cyclohexyl)furan-2-carboxamide], the results for the IC50 in data set [3] and in data set [4] were 0.63 nM and 0.12 nM, respectively.

Consider `Cc1ccc(C(=O)N[C@H]2CC[C@H](CCN3CCN(c4cccc5sccc45)CC3)CC2)o1` [Example 46, N-(Trans-4-(2-(4-(benzo[b]thiophen-4-yl)piperazin-1-yl)ethyl)cyclohexyl)-5-methylfuran-2-carboxamide], for which the IC50 is 0.91 nM in data set [3] and 0.6 nM in data set [4].

On to `COCC(=O)N[C@H]1CC[C@H](CCN2CCN(c3cccc4sccc34)CC2)CC1` [Example 47, N-(Trans-4-(2-(4-(benzo[b]thiophen-4-yl)piperazin-1-yl)ethyl)cyclohexyl)-2-methoxyacetamide], for which the results for the half-maximal inhibitory concentration (IC50) in data set [3] and in data set [4] were 0.96 nM and 0.47 nM, respectively.

`CC(C)(O)CC(=O)N[C@H]1CC[C@H](CCN2CCN(c3cccc4sccc34)CC2)CC1` [Example 48, N-(Trans-4-(2-(4-(benzo[b]thiophen-4-yl)piperazin-1-yl)ethyl)cyclohexyl)-3-hydroxy-3-methylbutanamide]: the figures for the IC50 in data set [3] and in data set [4] were 0.83 nM and 0.36 nM, respectively.

For the molecule `Fc1cnc(N[C@H]2CC[C@H](CCN3CCN(c4cccc5sccc45)CC3)CC2)nc1` [Example 49, N-(Trans-4-(2-(4-(benzo[b]thiophen-4-yl)piperazin-1-yl)ethyl)cyclohexyl)-5-fluoropyrimidin-2-amine], the IC50 in data set [3] came out at 0.34 nM; in data set [4] it was 2.43 nM.

For the molecule `CON(C)C(=O)N[C@H]1CC[C@H](CCN2CCN(c3cccc4sccc34)CC2)CC1` [Example 50, 3-(Trans-4-(2-(4-(benzo[b]thiophen-4-yl)piperazin-1-yl)ethyl)cyclohexyl)-1-methoxy-1-methylurea], the IC50 in data set [3] turned out to be 2.16 nM; in data set [4], 1.29 nM.

Consider `O=C(NC1CCC(CCN2CCN(c3cccc4sccc34)CC2)CC1F)c1ccco1` (stereo not shown) [Example 51, N-(4-(2-(4-(Benzo[b]thiophen-4-yl)piperazin-1-yl)ethyl)-2-fluorocyclohexyl)furan-2-carboxamide], for which the IC50 in data set [3] was 0.9 nM; in data set [4], 0.76 nM.

Values taken from US12459931B2, “Benzothiophene derivative regulator, preparation method therefor and use thereof” (Shanghai Hansoh Biomedical Co., Ltd., priority 2019, dated 2025).
